For data set [1] the following is noted: pH 7.4.
For data set [2] the following is noted: cited from earlier work.
The conditions of data set [3]: Pb2+ complex, cited from earlier work.
Data set [4] can be described thus: EDTA challenge. The format is physicochemical. To be noted: 20-fold excess EDTA, after 72 hours; 203Pb complex.
Data set [5] can be described thus: Non-radioactive Pb2+ challenge. To be noted: 20-fold excess non-radioactive Pb, after 72 hours; 203Pb complex. The format is physicochemical.
The nature of data set [6]: Chelator protonation constants by pH potentiometry. The format is physicochemical. The following applies: I = 0.1 M KCl, 25 °C.
For data set [7] the following is noted: for pPb (pM), -log [Pb]free: [Pb]tot = 10^-6 M, [L]tot = 10^-5 M; for pPb (pM), -log [Pb]free / log K'Pb (conditional stability constant): pH 7.4, 25 °C, I = 0.1 M.
[8] abbreviates: Pb2+ complex, I = 0.1 M KCl, 25 °C.

Where two headings read alike, the source gives them in different places.

On to `O=C(O)CN1CCN(CC(=O)O)CCN(CC(=O)O)CCN(CC(=O)O)CC1` [DOTA, 1,4,7,10-tetraazacyclododecane-1,4,7,10-tetraacetic acid], for which the “log K'Pb (conditional stability constant)” value (“log K'Pb” below) in data set [1] came to 15.64. In addition, in data set [2] (I = 0.1 M Me4NNO3), the “log K1 (protonation constant)” value is 12.09, the “log K2 (protonation constant)” value is 9.76, the “log K3 (protonation constant)” value is given as 4.559 and the “log K4 (protonation constant)” value is 4.09. Besides, in data set [3] (I = 0.1 M NaCl), the “log KPbL (thermodynamic stability constant, log KML)” value (“log KPbL” below) was 25.3(1)[39].

Consider `c1ccc(CN2CCN(Cc3ccccn3)CCN(Cc3ccccn3)CCN(Cc3ccccn3)CC2)nc1` [Cyclen-4Py, 1,4,7,10-tetrakis(pyridin-2-ylmethyl)-1,4,7,10-tetraazacyclododecane], for which the “complex remained intact, EDTA challenge” value in data set [4] was 98.1 ± 0.5%. Further, in data set [5], the “complex remained intact, non-radioactive Pb2+ challenge” value was 98.0 ± 0.4%. Also, in data set [6], the “log K1 (protonation constant)” value is 10.05(4), the “log K2 (protonation constant)” value is given as 7.53(2), the “log K3 (protonation constant)” value is 3.54(7) and the “log K4 (protonation constant)” value is on record as 2.23(6). Further, in data set [7] (setting [8]), the “log KPbHL” value was 2.06(9) and the “log KPbL” value is recorded as 19.95(3). Further, in data set [7], the “pPb (pM), -log [Pb]free” value came out at 17.88 and the “log K'Pb” value came to 16.93.

With `c1ccc(CN2CCOCCN(Cc3ccccn3)CCN(Cc3ccccn3)CCOCCN(Cc3ccccn3)CC2)nc1` [Crown-4Py, 4,7,13,16-tetrakis(pyridin-2-ylmethyl)-1,10-dioxa-4,7,13,16-tetraazacyclooctadecane], in data set [6], the “log K1 (protonation constant)” value was 7.91(4), the “log K2 (protonation constant)” value is given as 7.33(4), the “log K3 (protonation constant)” value was 4.64(1) and the “log K4 (protonation constant)” value is on record as 4.00(6). In data set [7] (setting [8]), the “log KPbH2L” value is 3.50(8); the “log KPbHL” value is reported as 5.22(1); the “log KPbL” value is on record as 13.29(5). In data set [7], the “pPb (pM), -log [Pb]free” value was 13.40 and the “log K'Pb” value is on record as 12.45.

On to `c1ccc(CN2CCOCCOCCN(Cc3ccccn3)CCOCCOCC2)nc1` [NOON-2Py, 7,16-bis(pyridin-2-ylmethyl)-1,4,10,13-tetraoxa-7,16-diazacyclooctadecane], for which, in data set [2] (I = 0.1 M KCl), the “log K1 (protonation constant)” value is 7.44, the “log K2 (protonation constant)” value is 6.26 and the “log K3 (protonation constant)” value was 1.38. In data set [3] (I = 0.1 M KCl), the “log KPbL” value was 11.67. Moreover, in data set [7], the “pPb (pM), -log [Pb]free” value came out at 12.29 and the “log K'Pb” value stood at 11.33.

`NC(=O)CN1CCN(CC(N)=O)CCN(CC(N)=O)CCN(CC(N)=O)CC1` [DOTAM, 1,4,7,10-tetrakis(carbamoylmethyl)-1,4,7,10-tetraazacyclododecane]: in data set [2] (I = 0.1 M NaNO3), the “log K1 (protonation constant)” value is given as 7.70(1) and the “log K2 (protonation constant)” value is reported as 6.21(1). Moreover, the “log KPbL” value in data set [3] (I = 0.1 M NaNO3) was more than 19.

The record behind these values is paper PMC9366509 (Inorganic chemistry, 2022).
